Source: patent US20120264611A1, “Pesticide Preparations Containing Derivatives Of Pyrrolidone-4-Carboxylic Acid” (CLARIANT FINANCE (BVI) LIMITED, priority 2009, published 2012)

How the values were obtained:
[1] = tested on: tomato plants (cv. Astona F1); test: Determination of phytotoxicity on tomato plants (auxiliaries sprayed without pesticide); assay type: in vivo
Description: The phytotoxicity is determined on tomato plants (cv. Astona F1), a species which, as is known, is sensitive to phytotoxic substances taken up via the leaf surface (“Phototoxicity of different classes of adjuvants”, H. de Ruiter, et al., Proceedings Fifth International Symposium on Adjuvants for Agrochemicals, 1998, Ed. P. McMullan, pp. 204-209).
Tomato plants (cv. Astona F1) are cultivated in a greenhouse under 14-hour light irradiation at a temperature of 18/12 (±0.5)° C. (day/night) and a relative atmospheric humidity of 70/80 (±5) % (day/night). 12 days after germination, the seedlings are transplanted into plastic pots having a diameter of 11 cm (one plant per pot) filled with a mixture of sand and soil (Soil No. 12, Colent b.v., Lent, the Netherlands) in a volume ratio of sand:soil=1:2.
The pots are placed on a subirrigation mat which was moistened daily with a nutrient solution of medium strength.
28 days after sowing, the plants were treated at the 4-leaf stage, each plant having a height of 15-17 cm. The auxiliary content of the spray solution was 0.5% (v/v or % by volume).
The spray solutions are applied to the plants using an air pressure-operated laboratory sprayer such that the resulting application rate is 200 l/ha.
The treated plants are scored visually after 2 and 8 days (DAT; DAT: days after treatment) and evaluated using a qualitative scale (1 to 5). Here, 1=no discoloration or necrosis of the leaves to 5=complete necrosis of the treated leaf surface. Moreover, the above-ground plant mass is determined after 8 days (fresh weight). In each case, the average is calculated, based on the number of treated plants.

[2] = tested on: Wild oats (Avena fatua, AVEFA); test: Increase of the biological activity of glyphosate by adjuvants, greenhouse trial (tank mix method); assay type: in vivo; conditions: 21 days
Description: Here, 50% strength solutions are used. In the case of compound 1, triethanolamine is additionally added to dissolve the acid.
By mixing these tank mix solutions with a commercial aqueous solution of glyphosate isopropylammonium (comprising 62% by weight of the active compound glyphosate IPA salt; IPA: isopropylammonium) and further addition of water, a preparation according to the invention is formed. The ratio of glyphosate (based on the acid equivalent) to adjuvant corresponds to that which is also found in commercially available glyphosate formulations.
For easier monitoring of the adjuvant effects, reduced doses of glyphosate are used; the application rate is 135.2 g a.e./ha glyphosate IPA salt (corresponding to 4.0 mmol or 0.68 g a.e./l at a liquid volume of 200 l/ha). The abbreviation “a.e.” means “acid equivalent”.
The spray solutions comprise the following concentrations of adjuvant: 0.0141% (v/v).
Wild oats (Avena fatua, AVEFA) are cultivated in a greenhouse under 14 hours of light irradiation at a temperature of 18/12 (±0.5)° C. (day/night) and a relative atmospheric humidity of 70/80 (±5) % (day/night). Light is introduced via high-pressure mercury lamps and fluorescent tubes, resulting in a power of 70 W/m^2 (PAR; PAR: photosynthetically active radiation (400-700 nm)) on the leaf level. The plants are cultivated in plastic pots having a diameter of 11 cm, filled with a mixture of sand and soil (Soil No. 12, Colent b.v., Lent, the Netherlands) in a volume ratio of sand:soil=1:2.
The pots are placed on a subirrigation mat which is moistened daily with a nutrient solution of medium strength. After emergence, the AVEFA seedlings are divided into six plants per pot for the activity tests.
The spray solutions are used to carry out greenhouse trials. The effect of the adjuvants on the efficacy of glyphosate is tested.
The spray solutions are applied to the plants using an air pressure-operated laboratory sprayer, such that an application rate of 200 l/ha results.
Wild oats (AVEFA) are treated once they have reached the 2-3 leaf stage.
The efficacy of the herbicide is assessed after 21 days. To this end, the mass of the remaining above-ground plant parts (fresh weight (FW) in gram) is determined. This is shown in table 3, together with the calculated relative residual amount, compared to the untreated plant (in % by weight).

| Compound | Visual evaluation (DAT 2) ([1]; 2 days after treatment, qualitative scale 1 (no discoloration or necrosis of the leaves) to 5 (complete necrosis of treated leaf surface), average, auxiliary 0.5% (v/v), 200 l/ha, no pesticide) | Visual evaluation (DAT 8) ([1]; 8 days after treatment, qualitative scale 1 (no discoloration or necrosis of the leaves) to 5 (complete necrosis of treated leaf surface), average, auxiliary 0.5% (v/v), 200 l/ha, no pesticide) | Fresh weight ([1]; above-ground plant mass after 8 days, average, auxiliary 0.5% (v/v), 200 l/ha, untreated 8.6 g) [g] | Mass of the plants formed compared to the untreated plant (in words) ([1]; summary of table 2, after 8 days) | Phytotoxic reaction of the tomato plants (in words) ([1]; summary of table 2, auxiliary 0.5% (v/v)) | Test 1, fresh weight of remaining above-ground plant parts ([2]; glyphosate IPA salt 135.2 g a.e./ha, adjuvant 0.0141% (v/v), 200 l/ha, untreated 11.26) [g FW] | Mean of tests 1 and 2 ([2]; glyphosate IPA salt 135.2 g a.e./ha, adjuvant 0.0141% (v/v), 200 l/ha, untreated 12.97) [g FW] | Test 2, fresh weight of remaining above-ground plant parts ([2]; glyphosate IPA salt 135.2 g a.e./ha, adjuvant 0.0141% (v/v), 200 l/ha, untreated 14.67) [g FW] | Residual amount ([2]; calculated relative residual amount compared to the untreated plant (100)) [% by weight] |
| --- | --- | --- | --- | --- | --- | --- | --- | --- | --- |
| CCCCCCCC/C=C\CCCCCCCCN1CC(C(=O)O)CC1=O (stereo not drawn) [Compound 1, N-oleyl-2-pyrrolidone-4-carboxylic acid] | 1.1 | 1.5 | 8.6 | not reduced | at most minimal signs of a phytotoxic reaction | – | – | – | – |
| O=C(O)CNCP(=O)(O)O [Glyphosate, no adjuvant added, glyphosate isopropylammonium] | – | – | – | – | – | 9.63 | 11.54 | 13.45 | 89 |
